Key:
[1] = test system: neuronal cultures from E18 rat cortices; experiment: Extracellular recording of spontaneous spiking on MED64 microelectrodes coated with polypyrrole/CNQX after current stimulus; format: cell-based
Text: CNQX is an AMPA type glutamate receptor antagonist which inhibits excitatory neural transmission. We electrodeposited polypyrrole/CNQX on the microelectrodes of MED64 probes which were than plated with neuronal cultures from E18 rat cortices. When spontaneous activity was observed on an electrode bearing a CNQX/PPy film, a current stimulus (four 1 s-long pulses of −5 μA with 200 ms refractory periods in between) was applied to the electrode. Recordings were taken before and after the stimulus to observe any inhibition and recovery (during the stimulation it was not possible to record from the particular electrode given the pulse).
It was observed that neural spiking disappeared after applying the stimulus to an electrode bearing the PPy/CNQX. And at a later time point action potentials from the same cell (determined by examination of the waveforms in Offline Sorter and Wave Tracker, Plexon Inc.) reappeared on the electrode and the rate returned to baseline (determined by pre-stimulus control recordings). […] We determined, through repeated release, inhibition and recovery cycles, a time course of inhibition and recovery (see FIG. 5B) that appears consistent with the published effect of CNQX and with the theoretical estimate of CNQX diffusion in solution. In the studies of FIG. 5B, repeated CNQX release trials were performed to determine a time course of recovery. […]

[2] = test system: low-density neuronal network; experiment: Patch clamp recording of monosynaptic currents in low-density neuronal network on PPy-modified MED64 after command signal; format: cell-based
Text: FIG. 6A is a photomicrograph image of a low-density neuronal network growing on a conducting polymer modified multielectrode array (MED64 available from Panasonic). The platinum coated electrodes are modified with the conducting polymer poly-pyrrole (PPy) containing either CNQX or chloride and phosphate ions (P) from PBS (blank release control). Release of the drug is affected by a “command signal,” which is the delivery of a voltage pulse (−2.5 V, 200 ms). Neuron “firing,” the generation of action potentials, is an all or none phenomenon. Synaptic currents are a continuous and graded phenomenon. For this reason synaptic currents recorded by patch electrodes better reflect the release and diffusion of the synaptic inhibitor CNQX, compared to action potentials recorded by the extracellular electrodes. To monitor the effect of release, individual cells in the network are patch clamped (wherein the patched cell is indicated by an arrow in FIG. 6A). The experimental protocol is described graphically in FIG. 6B. Neural stimulations (ns1,2, . . . ,8) are delivered through the substrate electrodes (but not the releasing electrode). The command signal starts 300 ms prior to ns2, and the currents are recorded by the patch electrode. […] FIG. 6C sets forth 8 columns corresponding to ns1 . . . 8, and 6 rows corresponding to individual trials. […]

[3] = test system: cultured hippocampal network; experiment: Evoked reverberatory activity of a cultured hippocampal network, patch clamping (polysynaptic current); format: cell-based, rat
Text: In several studies, the NMDA-type glutamate receptor antagonist AP-5 was, for example, incorporated as a dopant into PPy-coated gold “macro-electrodes” (having an area of 0.77-cm^2). In general, macro-electrodes or macroelectrodes have dimensions greater than 1 mm. A hippocampal neuronal culture and patch clamping were used to test the effectiveness of AP5 release. The drug was released from the electrode into normal recording solution by applying 30 cyclic voltage stimuli. This solution, when added to the neuronal culture, blocked evoked reverberatory activity in the network. […] 280 trials (at 30 s intervals) of evoked activity of a cultured hippocampal network under 5 different conditions were made in several studies as follows: 1. control (ctrl); 2. with 25 μM D-AP5 (AP5); 3. wash with recording solution that soaked the macroelectrode without voltage pulses (wash1); 4. with recording solution containing electrically released AP5 (AP5_r); 5. wash with normal recording solution (wash2). […] FIGS. 3A-3E sets forth example traces of polysynaptic current with one sample trace for each test condition. The scale bar in FIGS. 3A-E is 0.5 nA, 1 s.

N#Cc1cc2nc(O)c(O)nc2cc1[N+](=O)[O-] [CNQX, 6-cyano-7-nitroquinoxaline-2,3-dione]
neuronal spiking on the releasing/recording electrode after release ([1]; four 1 s pulses of −5 μA, transient, with subsequent recovery to baseline): suppression of neuronal spiking | spiking activity on neighboring electrodes after release ([1]; inter-electrode distance of 212 μm): did not affect spiking activity on neighboring electrodes | monosynaptic current following release (individual trial, FIG. 6C) ([2]; cell close to a CNQX containing electrode): almost completely abolished | size of monosynaptic currents following command signal ([2]; voltage pulse −2.5 V, 200 ms to electrode with PPy film containing CNQX): significant decrease

N[C@H](CCCP(=O)(O)O)C(=O)O [AP5, 2-amino-5-phosphonopentanoic acid]
reverberatory activity (polysynaptic current) ([3]; added AP5, 25 μM D-AP5 in recording solution): completely blocked | reverberatory activity (polysynaptic current) ([3]; recording solution containing AP5 electrically released from PPy macroelectrode by 30 cyclic voltage stimuli (AP5_r)): completely blocked
